Source: patent US20160310448A1, “Adamantane or Pinene Derivatives for Use in the Treatment of Chlamydiales Infections” (Commissariat a l'Energie Atomique et aux Energies …, priority 2015, published 2016)
“Also recorded” adds a separate entry of the source.

What was measured:
Format in all cases: cell-based
[1] = tested on: Simkania negevensis (Sn) strain Z; experiment: Sn infectivity assays (primary and progeny infection) in HeLa229 cells
Protocol: Simkania negevensis (Sn) strain Z (ATCC VR-1471) was prepared as described previously (Mehlitz A, Karunakaran K, Herweg J A, Krohne G, van de Linde S, Rieck E, Sauer M, Rudel T. The chlamydial organism Sn forms ER vacuole contact sites and inhibits ER-stress. Cell Microbiol 2014; 16(8):1224-1243).
Briefly, HeLa229 cells were grown to 50-70% confluence, were inoculated with Sn in RPMI1640 with 5% FBS, for 6 h at 35° C. in a humidified incubator at 5% CO2. Medium was replaced by infection medium (RPMI1640, Glutamax, 5% FBS, w/o HEPES) and growth was allowed for 3 days. Cells were mechanically detached and bacteria were released using ˜2-5 mm glass beads (Carl Roth). Low speed supernatant (600×g, 4° C. and 5 min) was subjected to high-speed centrifugation (20,000×g, 4° C. and 30 min) to pellet bacteria. Bacteria were washed twice with 5 ml SPG (250 mM sucrose, 50 mM sodium phosphate, 5 mM glutamate, pH 7.4), aliquoted and stored at '80° C. in SPG.
40,000 HeLa cells were seeded in 12-well cluster plates, inhibitor-treated and infected as indicated in the respective experiment.
For infectivity assays cells were either fixed and stained at indicated time points (FIGS. 2,4; inclusion formation/primary infection) or bacteria were released via one freeze thaw cycle (−70° C./37° C.) followed by mechanical release through pipetting and transfer to fresh HeLa229 cells (1:25-1:50, progeny/infectivity). Cells were centrifuged for 1 h at 35° C. and medium exchanged to infection medium. Progeny was fixed at day 3 post infection and processed for staining (FIG. 3) or harvested for immunoblotting (FIG. 1). Infectivity assays were imaged on an automated fluorescence microscope Leica DMIR (FIG. 4). Numbers and average sizes of the SCV as well as host cell numbers were determined via GroEL and DAPI staining and images were analysed and quantified using FIJI (ImageJ) and Excel (Microsoft).
In this progeny assay, bacteria are first grown in Hela299 cells treated with inhibitors (compound 20 at a concentration of 50 and 75 μM) and the infectious particles from this primary infection are applied to fresh cells in the absence of inhibitor to measure the bacterial load (GroEL immunoblot) and inclusion formation (immunofluorescence microscopy).

[2] = tested on: Chlamydia trachomatis (Ctr) strain L2/434/Bu; experiment: Chlamydia trachomatis (Ctr) infectivity assay, HSP60 immunoblot of primary and progeny infection in HeLa229 cells
From the text: (§1) Chlamydia trachomatis (Ctr). Laboratory-adapted strain L2/434/Bu (ATCC VR902B) was used in assays. Full biological and genetic information is available for this strain including complete genome sequence and defined proteome. This strain has a relatively low particle to infectivity ratio, perform efficient cell infection and has a higher viability than standard genital tract isolates with faster developmental cycle. Culture conditions have been described in (Wang Y., Kahane S., Cutcliffe L. T., Skilton R. J., Lambden P. R., Clarke I. N. Development of a transformation system for Chlamydia trachomatis: Restoration of glycogen biosynthesis by acquisition of a plasmid shuttle vector. PLoS Pathogen, 2011, 7(9):e1002258. doi: 10.1371/journal.ppat.1002258).
Compound application during Ctr infection. HeLa229 cells were pretreated with compound 20 in concentrations of 25, 50 and 75 μM for 30 min until Ctr (MOI1) were added to the cells. Compound 20 was present during infection.
Cells with primary infection were lysed 24 h post infection (hpi). To obtain progeny infection compound treated cells were lysed 48 hpi and lysate was used to infect fresh HeLa229 cells. Progeny infection was lysed 24 hpi and analyzed together with primary infection samples by immunoblot. Chlamydial growth was detected with antibodies against chlamydial HSP60 protein and Actin was used as loading control (FIG. 6).

[3] = tested on: Chlamydia trachomatis (Ctr) strain L2/434/Bu; experiment: microbe, parasite or virus in culture; details: for inhibition at 25 µM / inhibition at 75 µM: Chlamydia trachomatis, HeLa 229, progeny infection, HeLa229, MOI1, versus solvent-treated cells; for inhibition at 25 µM: read-out: Cellular protection at 25 μM; for inhibition at 75 µM: read-out: Cellular protection at 75 μM; for protection against Ctr progeny infection at 75 μM (in words) / protection against Ctr progeny infection at 25 μM (in words): HeLa229; for protection against Ctr progeny infection at 75 μM (in words): FIG. 7 and Table 1; for protection against Ctr progeny infection at 25 μM (in words): Table 1
Protocol: HeLa229 (ATCC CCL-2.1). Cells were grown in RPMI1640 medium (Glutamax, 10% FBS, w/o HEPES) (Invitrogen).
as §1
Compound application during Chlamydia trachomatis infection. HeLa229 cells were pretreated with compound #20 and its derivatives in concentrations of 25 μM and 75 μM for 1 hour until Chlamydia trachomatis (MOI1) were added to the cells. Compounds were present during infection. To obtain progeny infection, compound treated cells were lysed 24 h post infection (hpi) and lysate was used to infect fresh HeLa 229 cells.
Infected cells of progeny infection were fixed with 4% Paraformaldehyde 48 hpi. Cells were stained for DAPI and Chlamydia trachomatis were detected by GFP-signal. Images are representative of n=2 independent experiments. Quantification of infected cells by Chlamydia trachomatis was realized from microscopy images with Image J software (FIG. 7) and cellular protection by compounds at 25 μM and 75 μM was then determined (Table 1) by comparison with solvent-treated cells (control) with the following equation: […]

SMILES	effect on Sn progeny infection ([1]; HeLa cells, 50 and 75 μM, GroEL immunoblot, relative inclusion number)	effect on Sn primary infection ([1]; HeLa cells, 50 and 75 μM, relative inclusion size, fluorescence microscopy)	concentration of maximal inhibition of Sn replication ([1]; HeLa cells, FIGS. 1, 2, 3 and 4)	subcellular structure of Sn inclusions by transmission electron microscopy ([1]; infected HeLa cells, versus DMSO-treated control)	effect on Ctr progeny infection at 50 μM ([2]; 50 μM, HSP60 immunoblot)	effect on Ctr progeny infection at 75 μM ([2]; 75 μM, HSP60 immunoblot)	effect on chlamydial development (primary Ctr infection) ([2]; 25, 50 and 75 μM, HSP60 immunoblot 24 hpi)	inhibition at 25 µM [3]	inhibition at 75 µM [3]	protection against Ctr progeny infection at 75 μM (in words) [3]	protection against Ctr progeny infection at 25 μM (in words) [3]
COc1ccc(Br)cc1CNC12CC3CC(CC(C3)C1)C2 [Compound 20, (3S,5S,7S)-N-(5-bromo-2-methoxybenzyl)adamantan-1-amine]	inhibitor effect; also recorded: inhibits	inhibitor effect; also recorded: inhibits	75 µM	dramatically smaller and less sub-vacuoles and just few bacteria; also recorded: the number of Sn inclusions is reduced and the vacuole size is much reduced	strongly reduced amounts of Ctr in the progeny	totally blocked progeny infection	slight inhibitory effect	19.9%	75.7%	–	–
COc1ccc(Br)cc1CNC12CC3CC(C)(CC(C)(C3)C1)C2 [RN-2-103, (1R,3R,5S,7R)-N-(5-bromo-2-methoxybenzyl)-3,5-dimethyladamantan-1-amine]	–	–	–	–	–	–	–	66.9%	100%	full protection	–
COc1ccc(Br)cc1CN[C@H]1C[C@H]2C[C@@H]([C@@H]1C)C2(C)C [VP332, (1S,2S,3S,5R)-N-(5-bromo-2-methoxybenzyl)-2,6,6-trimethylbicyclo[3.1.1]heptan-3-amine]	–	–	–	–	–	–	–	100%	100%	full protection	full protection
COc1ccc(I)cc1CN[C@H]1C[C@H]2C[C@@H]([C@@H]1C)C2(C)C [VP386, (1S,2S,3S,5R)-N-(5-iodo-2-methoxybenzyl)-2,6,6-trimethylbicyclo[3.1.1]heptan-3-amine]	–	–	–	–	–	–	–	100%	100%	full protection	full protection
C[C@@H]1[C@@H](NCc2ccc(I)cc2)C[C@H]2C[C@@H]1C2(C)C [VP390, (1S,2S,3S,5R)-N-(4-iodobenzyl)-2,6,6-trimethylbicyclo[3.1.1]heptan-3-amine]	–	–	–	–	–	–	–	91.8%	100%	full protection	–
O=C(Nc1ccc(S(=O)(=O)Nc2nccs2)cc1)C12CC3CC(CC(C3)C1)C2 [m3, (3R,5R,7R)-N-(4-(N-(thiazol-2-yl)sulfamoyl)phenyl)adamantane-1-carboxamide]	–	–	–	–	–	–	–	46.9%	87.8%	–	–
O=C(N/N=C/c1cccc([N+](=O)[O-])c1)NC12CC3CC(CC(C3)C1)C2 [m4, N-((3S,5S,7S)-adamantan-1-yl)-2-((E)-3-nitrobenzylidene)hydrazine-1-carboxamide]	–	–	–	–	–	–	–	22.8%	81.6%	–	–
O=C(CC12CC3CC(CC(C3)C1)C2)N/N=C/c1ccc([N+](=O)[O-])o1 [m9, 2-((3R,5R,7R)-adamantan-1-yl)-N′-((E)-(5-nitrofuran-2-yl)methylene)acetohydrazide]	–	–	–	–	–	–	–	100%	100%	full protection	full protection
